Assay results taken from ChEMBL document CHEMBL1157539, “Thousands of chemical starting points for antimalarial lead identification” (Nature, 2010).
Several values for one entry are separate records, joined by “and”; a condition that tells them apart may be missing. Identical values can stand only once.

These compounds were tested on Plasmodium falciparum (assay: GSK_TCMDC: Inhibition of Plasmodium falciparum 3D7 in whole erythrocytes, using parasite LDH activity as an index of growth.). Details: not given.
Assay type: functional, organism-based

Row | SMILES | XC50
1 | Cc1cc(=O)c(-c2ccc(Oc3cccc(C(F)(F)F)c3)cc2)c(C)[nH]1 | 629 nM and 209 nM

Same assay, conditions: Plasmodium falciparum, 3D7

Row | SMILES | XC50 [nM]
2 | COc1cc2nc(N3CCC(CNC(=O)c4cc5ccccc5s4)CC3)nc(N)c2cc1OC | 293
3 | CNCCNC(=O)C1Cc2c([nH]c3c(C)cccc23)C(c2ccc(Cl)c(Cl)c2)N1 (centres undefined) | 716
4 | CC(C)(C)C1CCC(CC2=C(C(=O)O)c3ccccc3C2=O)CC1 (centres undefined) | 1100
5 | CC(=O)Nc1cccc(C(=O)Nc2cccc(-c3cccc(-c4nc5ccccc5[nH]4)c3)c2)c1 | 594
6 | CCOc1cc(C)ccc1C1CCN(CCCCNC(=O)c2nc(-c3ccc(C(F)(F)F)cc3)[nH]c2C)CC1 | 729
7 | O=[N+]([O-])c1cccc(NC(=S)N2CCCN(Cc3ccc(F)cc3F)CC2)c1 | 831
8 | CNC(=O)c1cnc(Nc2ccc(OCC(O)CN(C)C)cc2)nc1Nc1cccc(OC(C)C)c1 (centres undefined) | 137
9 | O=C(NCc1ccccc1)c1ncn(CCCN2CCC(N3CCCC3)CC2)c1-c1ccc(Cl)c(Cl)c1 | 1120
10 | O=C(C=Cc1ccc(Cl)c(Cl)c1)NCCCCCN1CCC(CCCNS(=O)(=O)c2ccc(Br)cc2)CC1 | 1130
11 | Cc1ccc(C(=O)Nc2ccnc(N(C)C3CCN(Cc4cccc(O)c4)CC3)c2)cn1 | 1880
12 | CCCCOc1ccc(-n2c(Nc3ccccc3)nc3cc(S(N)(=O)=O)ccc32)cc1 | 887
13 | CC(=O)Nc1nc(C(=O)Nc2ccc(-c3cccc(-c4nc5ccccc5[nH]4)c3)cc2)cs1 | 552
14 | CC(CCON1C(N)=NC(N)=NC1(C)C)c1ccc(Cl)c(Cl)c1 (centres undefined) | 3.2
15 | Brc1ccc(Nc2nc(NCc3ccccc3)c3ccccc3n2)cc1 | 337
16 | c1cc(CNCCc2ccncc2)cc(-c2ccc(-c3nc4ccccc4[nH]3)cc2)c1 | 146
17 | CC(C)CNCc1ccc(OCc2cccc(COc3ccc(CNCC(C)C)cc3I)c2)c(I)c1 | 772
18 | CCN(CCCNc1nc(=S)[nH]c2cc(OC)c(OC)cc12)c1ccccc1 | 721
19 | CC1(C)NC(=N)N=C(NOCC=Cc2ccccc2)N1 | 227
20 | COc1cc2c(c(Cl)c1OC)CCN(Cc1ccccc1)CC2c1ccc(NC(=O)C(F)(F)F)cc1 (centres undefined) | 924
21 | CCOC(=O)c1c(CN2CCN(C)CC2)n(Cc2ccccc2)c2cc(Br)c(O)cc12 | 595
22 | O=C(NC1CCC(CN2CCC(c3c[nH]c4ccccc34)CC2)CC1)c1cnn(-c2ccccc2)c1-c1ccccc1Cl (centres undefined) | 182
23 | O=C(Nc1ccc(C(F)(F)F)cc1)c1ccc(NCCCN2CCCCCC2)c([N+](=O)[O-])c1 | 315
24 | CN(C)C(CNC(=O)c1cc(-c2ccncc2)c(-c2ccc(NC(=O)Nc3ccccc3)cc2)o1)c1ccccc1 (centres undefined) | 603
25 | Cc1nc(-c2ccc3c(c2)CCN(CCC2CCC(NC(=O)c4cc5cccc(Cl)c5[nH]4)CC2)CC3)no1 (centres undefined) | 633
26 | O=C(NCCCN1CCCC1=O)c1cnc(N2CCC(Oc3ccccc3)CC2)c(Cl)c1 | 305

Row | SMILES | XC50 [nM]
27 | Cc1cc(N(C)C2CCN(C)CC2)nc(Nc2ccc(Cl)cc2)n1 | 290
28 | Cc1cc(NC(=O)c2sc3ccccc3c2O)no1 | 809
29 | COc1ccc2nccc([C@@H](O)CN3CCC(NC(=O)c4cc5cccnc5[nH]4)CC3)c2c1 | 894
30 | O=C(Nc1ccc(C(=O)N2CCN(CCN3CCN(c4cccc(C(F)(F)F)c4)CC3)CC2)cc1)c1ccc(OC(F)(F)F)cc1 | 691
31 | N=C(Nc1nc(-c2ccccn2)cc2ccccc12)c1cccc(Cl)c1 | 309
32 | COc1cc2nc(N3CCC(CCCC4CCNCC4)CC3)nc(NCc3ccccn3)c2cc1OC | 757
33 | NC(=O)C1CCN(Cc2ccc(-c3ccc(-c4nc5cc(C(F)(F)F)ccc5[nH]4)cc3)cc2)CC1 | 680
34 | CN1CCN(CCCNc2ncc3c(-c4ccc(NC(=O)Nc5cc(C(F)(F)F)ccc5F)c(F)c4)nn(C)c3n2)CC1 | 859
35 | CCC1N=C(N)N=C(N)N1OCc1ccc(Cl)c(Cl)c1 (centres undefined) | 3.35
36 | COc1c(Br)cc(Br)cc1C(C)=O | 989
37 | CN1CCCN(Cc2ccc(-c3cccc(NC(=O)c4ccc(F)cc4)c3)cc2)CC1 | 1090
38 | COc1ccc2c(c1)CCCC2C(C)NCC(O)c1cccc(C(F)(F)F)c1 (centres undefined) | 345
39 | COc1ccc(C(c2ccc(N(C)C)cc2)c2ccc(N(C)C)cc2)cc1 | 64.8
40 | Cc1nc2nc(N)nc(N)c2c(C)c1Cc1ccccc1Br | 60.2
41 | O=C(/C=C/c1ccc(Cl)c(Cl)c1)NCCCCCN1CCC(NC(=O)c2ccc3ccccc3c2)CC1 | 1020
42 | COc1ccc(OC)c(NC(=O)CSc2nc(-c3ccccc3Cl)ns2)c1 | 835
43 | O=C(/C=C/c1ccc(Cl)c(Cl)c1)N1CCC(CCN2CCC(c3c[nH]c4cc5c(cc34)OCO5)CC2)CC1 | 732
44 | CNC(=O)c1cnc(Nc2ccc(N3CCN(C)CC3)cc2)nc1Nc1ccccc1OC | 928
45 | CCCC1N=C(N)N=C(N)N1c1ccc(C)c(C)c1 (centres undefined) | 73.6
46 | c1ccc(Oc2ccc(Nc3ccnc4c(-c5ccccn5)cccc34)cc2)cc1 | 987
47 | COc1c(C2CCN(CCCCNC(=O)c3ccc(-c4ccc(C#N)cc4)nc3)CC2)ccc2c1CCCC2 | 530
48 | N=C(N)c1ccc(NC(=O)c2cc(Sc3ccc(O)c(C(=O)Nc4ccc(C(=N)N)cc4)c3)ccc2O)cc1 | 122
49 | CC(CCc1ccccc1)NCC(O)c1ccc2c3c(cccc13)S(=O)(=O)N2C (centres undefined) | 627
50 | N#Cc1ccc(CN2CCC(Oc3ccc(NC(=O)c4ccco4)cc3Cl)C2)cc1 (centres undefined) | 331
51 | c1ccc(CCNc2ccnc(Nc3ccc4[nH]nnc4c3)n2)cc1 | 863

Row | SMILES | XC50 [nM]
52 | O=C(Nc1ccc(-c2oc(C(=O)NCCc3cccc(Cl)c3)cc2-c2ccncc2)cc1)Nc1cccc(Cl)c1 | 722
53 | Nc1nc(Cc2ccc(Cl)cc2)nc(Cc2ccc(Cl)cc2)n1 | 929
54 | CC1(C(=O)Nc2ccc([N+](=O)[O-])cc2O)CC2c3ccccc3C1c1ccccc12 (centres undefined) | 715
55 | CCC(C)(C)NC(=O)C(c1cccc(OC)c1)N(C(=O)CNC(=O)c1cccs1)c1ccc2c(c1)OCCO2 (centres undefined) | 828
56 | Cc1nc(C)c(-c2ccc(-c3ccc(F)cc3)cc2)c(O)c1Br | 1070
57 | CN(C)S(=O)(=O)c1ccc(Nc2nc(NCCC3C=NC=N3)nc3cc[nH]c(=O)c23)cc1 (centres undefined) | 929
58 | COC(=O)c1ccc(CC(C)NCC(O)c2ccc(F)c(Cl)c2)cc1 (centres undefined) | 863
59 | Cc1cc(=O)c(C2CCC(c3ccc(Cl)cc3)CC2)c(C)[nH]1 (centres undefined) | 743
60 | CN(C(=O)Cc1ccc(Cl)cc1)C1CCN(CCCCCNC(=O)/C=C/c2ccc(Cl)c(Cl)c2)CC1 | 719
61 | Cc1ccc(NC(=O)c2ccc(CN3CCCN(CCC(C)C)CC3)cc2)cc1F | 609
62 | O=C(Nc1ccc(N2CCCCC2)c(Cl)c1)c1nc[nH]n1 | 449
63 | Cc1ccc(Oc2c(-c3ccccc3CN3CCCC3CN(C)C)cnn(C)c2=O)cn1 (centres undefined) | 1160
64 | Oc1c(C(Nc2ccccn2)c2ccc(Cl)cc2Cl)ccc2cccnc12 (centres undefined) | 892
65 | O=C(Nc1cccc(C(F)(F)F)c1)Nc1ccc(Cl)c(Cl)c1 | 735
66 | CN1CCN(CCCN(Cc2cccc(-c3ccc(CNCCc4ccccc4)cc3)c2)C(=O)Nc2ccccc2)CC1 | 834
67 | COc1ccc(C(=O)Nc2nonc2-c2ccc(OC)c(OC)c2)cc1Cl | 675
68 | Cc1cc(N2CCN(C(=O)OC(C)(C)C)CC2)ccc1N | 865
69 | CC(Cc1ccc(OCCN2CCN(c3cccc(Cl)c3)CC2)cc1)NCC(O)c1cccc(Cl)c1 (centres undefined) | 1210
70 | O=C(NC1CCN(Cc2ccccc2)CC1)c1cccc(-c2nc3ccc(Cl)cc3[nH]2)c1 | 864
71 | Cc1cc(S(=O)(=O)N2CCCCC(c3ccc(C(F)(F)F)cc3)=N2)c(Cl)cc1Cl | 504
72 | Cc1ccccc1NC(=O)C1CSCN1C(=O)OCc1ccccc1 (centres undefined) | 983
73 | NCC1CCCN1Cc1cccc(-c2ccc(-c3nc4ccccc4[nH]3)s2)c1 (centres undefined) | 1040
74 | COCCNCc1cccc(-c2ccc3c(Nc4cc(O)c(Cl)cc4F)ccnc3c2)c1 | 114
75 | O=C(/C=C/c1ccc(Cl)c(Cl)c1)NCCCCCN1CCCN(C(=S)Nc2ccc(Cl)cc2)CC1 | 1130
76 | O=C(Nc1ccc(CN2CCC(c3c[nH]c4ccc(O)cc34)CC2)cc1)c1ccc(-c2ccccc2)cc1 | 253

Row | SMILES | XC50 [nM]
77 | CN=C(N)c1ccc(NC(=O)C=Cc2ccc(C(=O)Nc3ccc(C(N)=NC)cc3)cc2)cc1 | 31.4
78 | O=C(/C=C/c1ccc(Cl)c(Cl)c1)N1CCC(CN2CCC(c3nc4ccccc4n3CCCO)CC2)CC1 | 839
79 | CCCCc1ccc2[nH]cc(C3=CCN(C)CC3)c2c1Br | 627
80 | CCC(CC)(Cc1ccccc1)NC(=O)[C@H](Cc1ccc(OC)c(OC)c1)Nc1ccc(C#N)c2ccccc12 | 866
81 | Oc1ccccc1CNCC(O)c1cc(C(F)(F)F)cc(C(F)(F)F)c1 (centres undefined) | 184
82 | Cc1cc(Cl)ccc1NC(=O)Nc1ccc2nccc(N3CCN(C)CC3)c2c1 | 394
83 | COc1ccc(C(=O)Nc2ccc3oc(-c4ccc(C(F)(F)F)cc4)cc3c2)cc1CCCN(C)C | 698
84 | NC(=O)c1ccccc1OCC(=O)Nc1cccc(-c2cccc(-c3nc4ccccc4[nH]3)c2)c1 | 376
85 | CC(C)CNCc1ccc(-c2cccc(CN(C(=O)Nc3ccccc3)C3CCN(Cc4ccccc4)CC3)c2)cc1 | 410
86 | O=C(Nc1cccc(CN2CCCN(Cc3ccsc3)CC2)c1)c1ccc(Cl)c(Cl)c1 | 885
87 | COc1ccc(Nc2nc(NC3CCCC3)cc(-c3ccc(OC)cc3)n2)cc1 | 1030
88 | O=[N+]([O-])c1ccc(Nc2nc(NCc3ccccc3)nc(N/N=C/c3ccccc3[N+](=O)[O-])n2)cc1 | 157
89 | O=C(Nc1cc(F)cc(F)c1)N[C@H]1CCN(CCCCCNC(=O)C2CC2c2ccc(Cl)c(Cl)c2)C1 (some centres undefined) | 1080
90 | CCOC(=O)N1CCN(CCCNc2c3ccc(Cl)cc3nc3ccc(OC)cc23)CC1 | 104
91 | CC(C)(C)NC(=O)COC(=O)c1c2c(nc3ccccc13)C(=Cc1ccc3c(c1)OCO3)CCC2 | 735
92 | COc1cc2c(c(OC)c1[N+](=O)[O-])C=CC1(O2)N(C)c2ccc([N+](=O)[O-])cc2C1(C)C (centres undefined) | 905
93 | COc1ccc(CN2CCC2=O)c(OC)c1 | 122
94 | CC(=O)Nc1ccc(CNCCc2ccc(NC(=O)c3cc(Cl)cc(Cl)c3)cc2)cc1 | 684
95 | CNC(=O)NC1=NC(C)(C)N(OCc2ccc(Cl)c(Cl)c2)C(NC(=O)NC)=N1 | 601
96 | Cc1nc(N)nc(N)c1OCCCOc1cccc(Cl)c1Cl | 2.56
97 | COc1cccc2cc(C(=O)N[C@@H](CC(C)C)C(=O)N[C@H](C=NN3CCOC3=O)Cc3ccccc3)oc12 | 686
98 | O=C(Nc1ccc(OC2CCN(Cc3ccccc3)CC2)c(Cl)c1)c1ccco1 | 408
99 | Cc1cc(NC(=O)Nc2cccc(Cl)c2Cl)c2ccccc2n1 | 744
